Laboratory results: the supplement of paper PMC9938120

Legend:
Assay in all cases: drug sensitivity score (DSS3, normalised partial AUC of % inhibition dose-response) (DSS (score)); higher = more sensitive (stronger inhibition of viability); extreme values may be limits of the assay
FMOC02_1 = patient-derived low-grade serous ovarian cancer cells; conditions: 72 h; library: FO5A; assay format: 2D, 384-well, CellTiter-Glo
How it was run: (§1)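 On 384-well flat clear-bottom plates carrying compounds at five concentrations across a 10,000-fold range, patient-derived ovarian cancer cells below passage 10 were incubated for 72 h at 37 °C with 5% CO2. CellTiter-Glo readout of viability was processed in Breeze. A higher drug sensitivity score, defined as the partial area under the percent-inhibition dose-response curve divided by the log of the upper asymptote, means greater sensitivity.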

FMOC02_2 = patient-derived low-grade serous ovarian cancer cells; conditions: 72 h; library: FO5A; assay format: 2D, 384-well, CellTiter-Glo
How it was run: as §1

FMOC02_3 = patient-derived low-grade serous ovarian cancer cells; conditions: 72 h; library: FO5A; assay format: 2D, 384-well, CellTiter-Glo
How it was run: as §1

FMOC03 = patient-derived mucinous ovarian cancer cells; conditions: 72 h; library: FO5A; assay format: 2D, 384-well, CellTiter-Glo
How it was run: as §1

FMOC04 = patient-derived high-grade serous ovarian cancer cells; conditions: 72 h; library: FO5A; assay format: 2D, 384-well, CellTiter-Glo
How it was run: as §1

FMOC06 = patient-derived mucinous ovarian cancer cells; conditions: 72 h; library: FO5A; assay format: 2D, 384-well, CellTiter-Glo
How it was run: as §1

FMOC09 = patient-derived high-grade serous ovarian cancer cells; conditions: 72 h; library: FO5A; assay format: 2D, 384-well, CellTiter-Glo
How it was run: as §1

FMOC11 = patient-derived high-grade serous ovarian cancer cells; conditions: 72 h; library: FO5A; assay format: 2D, 384-well, CellTiter-Glo
How it was run: as §1

FMOC14 = patient-derived high-grade serous ovarian cancer cells; conditions: 72 h; library: FO5A; assay format: 2D, 384-well, CellTiter-Glo
How it was run: as §1

FMOC17 = patient-derived low-grade serous ovarian cancer cells; conditions: 72 h; library: FO5A; assay format: 2D, 384-well, CellTiter-Glo
How it was run: as §1

FMOC22 = patient-derived mucinous ovarian cancer cells; conditions: 72 h; library: FO5A; assay format: 2D, 384-well, CellTiter-Glo
How it was run: as §1

FMOC24 = patient-derived high-grade serous ovarian cancer cells; conditions: 72 h; library: FO5A; assay format: 2D, 384-well, CellTiter-Glo
How it was run: as §1

FMOC25_1 = patient-derived low-grade serous ovarian cancer cells; conditions: 72 h; library: FO4B; assay format: 2D, 384-well, CellTiter-Glo
How it was run: as §1

FMOC25_2 = patient-derived low-grade serous ovarian cancer cells; conditions: 72 h; library: FO5A; assay format: 2D, 384-well, CellTiter-Glo
How it was run: as §1

FMOC27 = patient-derived low-grade serous ovarian cancer cells; conditions: 72 h; library: FO5A; assay format: 2D, 384-well, CellTiter-Glo
How it was run: as §1

FMOC28 = patient-derived low-grade serous ovarian cancer cells; conditions: 72 h; library: FO5A; assay format: 2D, 384-well, CellTiter-Glo
How it was run: as §1

SMILES	drug sensitivity score (FMOC02_1)	drug sensitivity score (FMOC02_2)	drug sensitivity score (FMOC02_3)	drug sensitivity score (FMOC03)	drug sensitivity score (FMOC04)	drug sensitivity score (FMOC06)	drug sensitivity score (FMOC09)	drug sensitivity score (FMOC11)	drug sensitivity score (FMOC14)	drug sensitivity score (FMOC17)	drug sensitivity score (FMOC22)	drug sensitivity score (FMOC24)	drug sensitivity score (FMOC25_1)	drug sensitivity score (FMOC25_2)	drug sensitivity score (FMOC27)	drug sensitivity score (FMOC28)
Cc1ncc(Cl)cc1NCc1ccc(C(=O)N[C@@H](CC2CCCC2)C(=O)NC2CC2)s1	0	0	7.1	0	0	0.2	0	0	0	0	0.1	2.05	0	0	1.5	0
COc1cc(OC2CCN(C)CC2)ccc1Nc1ncc2c(n1)n(C1CCCC1)c(=O)n2C [AZ 3146]	5.2	5.2	9	0.7	1.3	2.9	1.1	1.3	0.9	4.7	0.8	6.25	3.7	6	4.4	2.3
CC1(C)CCC(CN2CCN(c3ccc(C(=O)NS(=O)(=O)c4ccc(NCC5CCOCC5)c([N+](=O)[O-])c4)c(Oc4cnc5[nH]ccc5c4)c3)CC2)=C(c2ccc(Cl)cc2)C1 [Venetoclax]	0	0	0	0	0	0	0	0	0	0	0	1.8	0	0	0.3	0
CCn1c(-c2nonc2N)nc2cnc(Oc3cccc(NC(=O)c4ccc(OCCN5CCOCC5)cc4)c3)cc21	4.8	1.6	6.3	0.4	0.6	1.3	2.3	3.7	2.2	2	1.7	2.3	0	3.8	2.9	0.4
CN1CCN(c2ccc3nc(-c4c(N)c5c(F)cccc5[nH]c4=O)[nH]c3c2)CC1 [Dovitinib]	0.6	1.4	1.1	0	0	0	0	0.1	0	0	0	1.6	0.2	0.4	0	1
CN(C)CCOc1ccc(/C(=C(/CCCl)c2ccccc2)c2ccccc2)cc1 [Toremifene]	6	5.3	7.1	5.3	4	7.4	3.8	4.3	5.2	3.3	5.3	7	2.2	2.2	1.9	2.4
COc1cccc2c1c(O)c(C(=O)N(C)c1ccc(C(F)(F)F)cc1)c(=O)n2C [Tasquinimod]	0	0	1	0	0	0	0	0	0	0	0	2.3	3.9	2.5	0.4	0
NCC(=O)Nc1ccc(-n2nc(C(F)(F)F)cc2-c2ccc3c(ccc4ccccc43)c2)cc1	6.9	4.3	1.8	0.4	1.2	0	0	0	0	1.9	0.8	3.05	7.9	5.2	0	4.5
CC1(C)CNc2cc(NC(=O)c3cccnc3NCc3ccncc3)ccc21 [Motesanib]	0	0.5	2.9	0	0	1.1	0	0.2	0	0	0	0.15	1	0.1	0.6	2.4
C[C@]12CC[C@H](O)CC1=CC[C@@H]1[C@@H]2CC[C@]2(C)C(c3cccnc3)=CC[C@@H]12 [Abiraterone]	0	1.3	0	0	0.05	0.1	0	0	2.3	0	0	4.9	0.3	0.6	0	0.6
CCS(=O)(=O)N1CC(CC#N)(n2cc(-c3ncnc4[nH]ccc34)cn2)C1 [Baricitinib]	0	0	0	0	0	0	0	0	0	0	0	0.05	0	0	0	0
CNCc1ccc(-c2[nH]c3cc(F)cc4c3c2CCNC4=O)cc1 [Rucaparib]	2.1	2.1	3.1	0	0	0	0	0	0.3	3.6	0	12.9	0.5	2.4	1.7	1.9
